Measured values from US20250017895A1, “FLAVANOID CONTAINING COMPOSITIONS AND METHODS OF USE THEREOF FOR THE TREATMENT OF MITOCHONDRIAL DISORDERS” (priority 2021, published 2025).
Entries after “also recorded” stand apart in the source; their conditions may differ.

What was measured:
[1] = test system: nutrient sensing signaling network (NSSN) gene expression; test: NSSN gene expression and RNAseq KEGG pathway profiling in gas-1(fc21) worms; format: in vivo, C. elegans; conditions: 24 hours; for MAPK signaling pathway expression (RNAseq, KEGG): relative to DMSO-only buffer
Excerpt: RQ, relative quantitation. […] Pathways marked with a star are also positively modulated in this same mitochondrial disease animal model by combination glucose+nicotinic acid+N-acetylcysteine triple therapy.
It is already evident that epicatechin therapy in some diseases can favorably alter the activities of central NSSN nodes, such as AMPK, that are known to regulate cell proliferation, autophagy, and mitochondrial proliferation. […] The pathways marked with a star can similarly be restored in gas-1(fc21) complex I deficient worms by combination therapy of glucose+nicotinic acid+N-acetylcysteine.

[2] = test system: gas-1(fc21) mitochondrial complex I disease worms; test: Worm neuromuscular activity by body bend rate analysis; format: in vivo, C. elegans; conditions: 100 nMol
Excerpt: FIGS. 5A and 5B: Worm neuromuscular activity as assayed by body bend rate analysis was reduced in gas-1(fc21) mitochondrial complex I disease ndufs2^−/− worms relative to wild-type (N2 Bristol) worms.
(§1) Neuromuscular activity, and lifespan were quantified in the C. elegans gas-1(fc21) ndufs2^−/− mutants. A semi-automated screening method (Mathew et al, 2016) was used to test drug treatment effects on an integrated C. elegans health endpoint of fecundity, brood size, and behavior.

[3] = test system: gas-1(fc21) ndufs2−/− complex I disease mutant worms; test: C. elegans gas-1(fc21) lifespan analysis; format: in vivo; conditions: FUDR used
Excerpt: FIG. 2C, the Table below FIGS. 2A and 2B indicates specific values and P values calculated in Graphpad Prism v5.0 for graph shown in FIG. 2B (survival data is shown in days).
as §1
(−) Epicatechin and (+) Epicatechins act through mimicry of the endogenous mitochondrial steroid 11-β-hydroxypregnenolone (11-OHP), a potent inducer of mitochondrial biogenesis. C. elegans nematode strains studied included wild-type (N2 Bristol) and gas-1(fc21) mutants. […] FIGS. 2D, 2E and 2F are graphs show a side-by-side comparison of (+)-epicatechin, (−)-epicatechin and 11-0HP on gas-1(fc-21) worm survival.

AB (wild-type) zebrafish = test: AB wild-type zebrafish swimming activity with high-dose rotenone; format: in vivo, Danio rerio
Excerpt: Each symbol indicates one fish. **, p<0.01. ***, p<0.001.
EP07, 11-hydroxyprogesterone. **, p<0.01. Each symbol conveys activity of one well with n=8 animals/well in a 96-well plate, as quantified in dark-cycle analysis in the Zebrabox (Viewpoint).
Swimming activity (Zebrabox) was quantified in first five-minute periods of three consecutive dark cycles across 3 biological replicate experiments. Activity score was normalized to percent of wild-type concurrent controls. […] AB (wild-type) zebrafish had reduced swimming activity with high dose (70 nM) rotenone exposure for 4 hours on 7 dpf.
The indicated agents were added at 5 and 6 dpf, twice a day. 70 nM rotenone was added on 7 dpf. 4 hours later the larvae were transferred into a 96 well plate (1fish per well, 8 wells per condition), 96-well plates were immediately placed into NOLDUS to evaluate swim activity in repeating light-dark exposure. Swim activity effects were averaged in first 5 minutes of each light-off (‘dark’) period across all light on/off cycles.

[4] = test system: Pdss2kd/kd homozygous missense mutant mice; test: Liver mitochondrial content (VDAC western blot, citrate synthase activity) in Pdss2kd/kd mice; format: in vivo; conditions: 5 μg/mL or 10 μg/mL in drinking water; both sexes
Pdss2kd/kd mice = test: Liver NAD+, NADH and NADH:NAD+ redox analysis in Pdss2kd/kd mice; format: in vivo; conditions: 5 μg/mL to 10 μg/mL in drinking water; 2 months
Excerpt: FIGS. 17A-17E: Biochemical analysis of mitochondrial amount (citrate synthase activity) and NADH:NAD+ redox balance in coenzyme Q deficient Pdss2^kd/kd mice. […] Biochemical studies are shown both by sex and all grouped together, where n=number of animals studied per group.
Untreated mice included 2M and 1F.

[5] = test system: FBXL4-human disease patient fibroblasts; test: FBXL4 patient fibroblast cell death in galactose; format: cell-based; conditions: 20 nM; 72 hours in galactose
Procedure: (§2) Human fibroblasts were studied from a subject harboring a 1067del (p.Gly356Alafs*15) nonsense mutation in the maternal FBXL4 allele and a c. 1790A>C (p.GLn597Pro) missense mutation in the paternal FBXL4 allele (Gal et al, 2013). Fibroblasts were cultured in DMEM (1 g/L glucose, 0.8 g/L L-Glutamine, 110 mg/L Sodium Pyruvate). Light, fluorescence, confocal microscopy and transmission electron microscopy (TEM, Lavorato et al. 2017) methods were used to analyze proband fibroblasts and mitochondrial morphology at baseline and following metabolic stress induced by incubating cells for 48 hours in glucose/uridine-free media. Mitotracker green was used for fluorescence microscopy, Tom20 Antibody (Santa Cruz) and DAPI was used for confocal microscopy.

ndufs2−/− zebrafish = ndufs2−/− zebrafish dark-induced swimming activity with low-dose rotenone (Zebrabox); format: in vivo, Danio rerio
[6] = test system: Human podocytes (renal glomerular cells); test: Human podocyte viability / cell death under rotenone complex I inhibition; conditions: for cell death caused by rotenone (45% cell death): 12.5 nM rotenone
[7] = test system: human fibroblasts from a patient with FBXL4 disease; test: FBXL4 patient fibroblast mitochondrial content by FACS of Mitotracker Green; format: cell-based; conditions: for increase in cellular mitochondrial content compared to baseline: overnight incubation, data not shown; for improvement of mitochondrial content: 24 hours, galactose media
Procedure: as §2

[8] = test system: cell or animal models of primary RC dysfunction; test: Overall observations across cell and animal models of primary RC dysfunction
[9] = test system: gas-1(fc21) ndufs2−/− mutant worms; test: In vivo terminal pharyngeal bulb fluorescence (MitoSOX, MitoTracker Green, TMRE) in gas-1(fc21) worms; parameters: species or system C. elegans
Procedure: In each panel, n conveys the number of animals studied per conditions. Bars and error bars convey mean and standard error, respectively.
Mitochondrial oxidant burden (MitoSOX Red), membrane potential (tetramethylrhodamine ethyl ester, TMRE), and mitochondrial content (MitoTracker Green FM, MTG) were performed in C. elegans at 20° C. using in vivo terminal pharyngeal bulb relative fluorescence microscopic quantitation. […] Worms were then paralyzed in situ with 5 mg/ml levamisole. Photographs were taken in a darkened room at 160× magnification with a Cool Snap cf2 camera (Nikon, Melville, N.Y.). A CY3 fluorescence cube set (MZFLIII, Leica, Bannockburn, Ill.) was used for MitoSOX and TMRE. A GFP2 filter set (Leica) was used for MitoTracker Green FM. Respective exposure times were 2 s, 320 ms, and 300 ms for each of MitoSOX, TMRE, and MitoTracker Green FM. The resulting images were background subtracted, and the nematode terminal pharyngeal bulb was manually circled to obtain mean intensity of the region by using Fiji Is Just ImageJ. Fluorescence data for each strain were normalized to its same day control to account for day-to-day variation. A minimum of 3 independent experiments of approximately 50 animals per replicate were studied per strain per dye. The significance of the difference in the mean fluorescence intensity between strains under different experimental conditions was assessed by mixed-effect ANOVA, which analyzes potential batch effect due to samples being experimentally prepared, processed, and analyzed on different days by including a batch random effect in the model. A statistical significance threshold was set at P<0.05. All statistical analyses were performed in SAS 9.3.
FIGS. 4A-4E show in vivo quantification of relative mitochondrial oxidant burden, mitochondrial content, and mitochondrial membrane potential in gas-1(fc21) complex I disease worms.

[10] = 10 nMol, 72 hours, redosing every 24 hours

CC(=O)[C@H]1CC[C@H]2[C@@H]3CC=C4C[C@@H](O)CC[C@]4(C)[C@H]3[C@@H](O)C[C@]12C [11-β-hydroxypregnenolone]
MAPK signaling pathway expression (RNAseq, KEGG) [1]: uniquely and substantially modulated | impaired neuromuscular function (body bend rate) toward wild-type [2]: protective; also recorded: significantly rescued | lifespan rescue compared to buffer-only treated gas-1(fc21) worms ([3]; 1 nMol): Significant lifespan rescue | lifespan rescue compared to buffer-only treated gas-1(fc21) worms ([3]; 10 nMol): Significant lifespan rescue | increase in swimming activity toward AB controls (AB (wild-type) zebrafish; 2 nM pre-treatment from 5 dpf, high-dose (70 nM) rotenone 4 hours at 7 dpf): ~25% | swimming activity (AB (wild-type) zebrafish; 6 nM, high-dose (70 nM) rotenone): significantly improved

Oc1cc(O)c2c(c1)O[C@@H](c1ccc(O)c(O)c1)[C@@H](O)C2 [(+) epicatechin]
citrate synthase activity in liver [4]: substantially increased | Daf-16 (FOXO) expression, downregulated in gas-1(fc21) ([1]; 10 nM): substantially upregulated | Par-4 (LKB1) expression, downregulated in gas-1(fc21) ([1]; 10 nM): increased | SOD2 (mnSOD) expression, upregulated in gas-1(fc21) ([1]; 10 nM, relative to wild-type levels): normalized | MAPK signaling pathway expression (RNAseq, KEGG) [1]: uniquely and substantially modulated | NAD+ deficiency / NADH:NAD+ redox imbalance in liver (Pdss2kd/kd mice): did not correct | increased cell death in galactose [5]: significantly rescued | swimming activity (ndufs2−/− zebrafish; 100 nM, low-dose (12 nM) rotenone): significantly improved | increase in swimming activity toward wild-type controls (ndufs2−/− zebrafish; 100 nMol pre-treatment from 5 dpf, 12 nMol rotenone at 7 dpf): ~25% | cell death caused by rotenone (45% cell death) ([6]; 1 nM): not | cell death caused by rotenone (45% cell death) ([6]; 10 nM): improved | podocyte viability upon RC inhibition ([6]; 10 nM, galactose media, 25 nM rotenone, 48 hours): significantly improved | podocyte viability upon RC inhibition ([6]; 10 nM, glucose media, 35 nM rotenone, 48 hours): significantly improved | cell death caused by rotenone (45% cell death) ([6]; 100 nM): improved | improvement in cell viability ([6]; 10 to 100 nanomolar, rotenone treated human cells): approximately 50% | effectiveness on podocyte viability compared with the other enantiomer ([6]; rotenone, 48 hours): more effective than (−) epicatechin | increase in cellular mitochondrial content compared to baseline ([7]; 1 nM): 14% | increase in cellular mitochondrial content compared to baseline ([7]; 10 nM): 21% | mitochondrial content ([7]; 1 nMol to 20 nMol range): significantly increased | improvement of mitochondrial content ([7]; 1 nMol): 70% | improvement of mitochondrial content ([7]; 10 nMol): 70% | impaired neuromuscular function (body bend rate) toward wild-type [2]: rescues; also recorded: significantly rescued | lifespan rescue compared to buffer-only treated gas-1(fc21) worms ([3]; 1 nMol): Significant lifespan rescue | median survival ([3]; 1 nMol, buffer-only gas-1(fc21) 19 days): 23 days | lifespan rescue compared to buffer-only treated gas-1(fc21) worms ([3]; 10 nMol): Significant lifespan rescue | maximum survival ([3]; 10 nMol, buffer-only gas-1(fc21) 27 days): 31 days | effectiveness of low (nanomolar range) versus higher (micromolar range) concentrations ([8]; C. elegans and human cell studies): more effective than higher | adverse effects ([8]; cell or animal models of primary RC dysfunction): No adverse effects | improvement of mitochondrial membrane potential towards wild type levels ([9]; 10 nM, 24 hours): 62% | improvement in mitochondrial content (MitoTracker Green) ([9]; 10 nM, 24 hours, most improved concentration): 39% | mitochondrial content ([9]; 1 nMol, 24 hours): significantly rescued | mitochondrial oxidant burden ([9]; 1 nMol, 24 hours): significantly rescued | mitochondrial content ([9]; 10 nMol, 24 hours): significantly rescued | mitochondrial membrane potential ([9]; 10 nMol, 24 hours): significantly recued | mitochondrial oxidant burden ([9]; 10 nMol, 24 hours): significantly rescued | mitochondrial content [9, 10]: significant rescue; also recorded: significantly rescued | mitochondrial oxidant burden [9, 10]: complete reversal; also recorded: significantly rescued | mitochondrial content ([9]; 100 nMol, 24 hours): significantly rescued | mitochondrial oxidant burden ([9]; 100 nMol, 24 hours): significantly rescued | mitochondrial oxidant burden (MitoSox) ([9]; all concentrations of 3-log order dose range, 24 hours): complete normalization

Oc1cc(O)c2c(c1)O[C@H](c1ccc(O)c(O)c1)[C@H](O)C2 [(−) epicatechin]
impaired neuromuscular function (body bend rate) toward wild-type [2]: significantly rescued | lifespan rescue compared to buffer-only treated gas-1(fc21) worms ([3]; 10 nMol): Significant lifespan rescue | lifespan rescue compared to buffer-only treated gas-1(fc21) worms ([3]; 100 nMol): Significant lifespan rescue
